Patent US20080188528A1, “Modulators of C3a receptor and methods of use thereof” (priority 2006, published 2008)
pIC50: −log10 of the molar value. Counter-ions that a name gives are not always drawn.

Target: T1, human C3a receptor (C3aR) (Homo sapiens, UniProt Q16581)
T1 construct: expressed in transfected cells
T1 sequence (Q16581 1-482): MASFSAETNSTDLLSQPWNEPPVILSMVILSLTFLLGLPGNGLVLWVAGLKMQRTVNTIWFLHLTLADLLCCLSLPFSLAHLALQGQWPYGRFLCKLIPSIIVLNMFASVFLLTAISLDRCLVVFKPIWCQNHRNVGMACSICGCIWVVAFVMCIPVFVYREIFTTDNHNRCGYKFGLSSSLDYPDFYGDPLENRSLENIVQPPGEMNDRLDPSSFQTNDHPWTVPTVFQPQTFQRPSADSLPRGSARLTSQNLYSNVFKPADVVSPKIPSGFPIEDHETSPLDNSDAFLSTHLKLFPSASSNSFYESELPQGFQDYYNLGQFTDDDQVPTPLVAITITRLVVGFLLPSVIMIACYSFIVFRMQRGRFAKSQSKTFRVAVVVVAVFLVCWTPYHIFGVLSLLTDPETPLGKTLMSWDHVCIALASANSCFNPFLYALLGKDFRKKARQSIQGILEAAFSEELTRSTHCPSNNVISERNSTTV
Assay: Inhibition of human [125I]-C3a binding to human C3a receptor (SPA, membranes of HEK293 cells expressing recombinant C3aR)
Conditions: 0.1 nM [125I]-C3a, 3 hours at room temperature; Table 1
Method: Inhibition of human [^125I]-C3a binding to human C3a receptor
Binding of human [^125I]-C3a to human C3a receptor (C3aR) was done using cell membranes from HEK293 cells stably expressing recombinant C3aR, in a homogeneous scintillation proximity assay (SPA). The C3aR cell membranes were pre-coupled over-night at 4° C. to WGA-PVT SPA beads (Amersham) at a ratio of 10 μg cell membrane to 0.5 mg beads/assay. Assay was performed in 96-well microtiter Optiplates (Packard) by mixing coupled beads and 0.1 nM [^125I]-C3a (2200 Ci/mmol, Perkin Elmer Life Sciences), in a total volume of […] binding buffer (20 mM HEPES, pH 7.4, 125 mM NaCl, 5 mM KCl, 1 mM CaCl2, 1 mM MgCl2, 0.25% BSA, 0.2% CHAPS). Test compounds were diluted in DMSO and were tested for their inhibitory potential in the assay (final concentration≦1% DMSO). Incubation was done for 3 hours at room temperature followed by reading in a TopCount scintillation microplate reader. Non-specific binding was determined by adding 1 μM unlabeled C3a (Calbiochem) to the assay mixture. Calculation of the IC50 was done as above using a nonlinear least square fitting program, with Graphpad Prism.

| Structure (SMILES) | pIC50 |
| --- | --- |
| CC(C)c1cccc(-c2ccccc2Cn2cccc(C(=O)N[C@@H](CCCNC(=N)N)C(=O)O)c2=O)c1 [Compound 29, (2S)-5-carbamimidamido-2-[({1-[(3′-isopropylbiphenyl-2-yl)methyl]-2-oxo-1,2-dihydropyridin-3-yl}carbonyl)amino]pentanoic acid•TFA] | > 7.30 |
| N=C(N)NCCC[C@H](NC(=O)c1cccn(Cc2ccccc2-c2ccc(F)cc2)c1=O)C(=O)O [Compound 31, (2S)-5-carbamimidamido-2-[({1-[(4′-fluorobiphenyl-2-yl)methyl]-2-oxo-1,2-dihydropyridin-3-yl}carbonyl)amino]pentanoic acid•TFA] | > 7.30 |
| N=C(N)NCCC[C@H](NC(=O)c1cccn(-c2ccc3ccccc3c2)c1=O)C(=O)O [Compound 32, (2S)-5-carbamimidamido-2-({[1-(2-naphthyl)-2-oxo-1,2-dihydropyridin-3-yl]carbonyl}amino)pentanoic acid•TFA] | 6.30 to 7.30 |
| N=C(N)NCCC[C@H](NC(=O)c1cccn(-c2ccc(-c3ccccc3)cc2)c1=O)C(=O)O [Compound 34, (2S)-2-{[(1-biphenyl-4-yl-2-oxo-1,2-dihydropyridin-3-yl)carbonyl]amino}-5-carbamimidamidopentanoic acid•TFA] | 4.70 to 6.30 |
| N=C(N)NCCC[C@H](NC(=O)c1ccc(-c2ccccc2)n(Cc2ccccc2)c1=O)C(=O)O [Compound 36, (2S)-2-{[(1-benzyl-2-oxo-6-phenyl-1,2-dihydropyridin-3-yl)carbonyl]amino}-5-carbamimidamidopentanoic acid•TFA] | 4.70 to 6.30 |
| N=C(N)NCCC[C@H](NC(=O)c1cccn(CC(=O)N(c2ccccc2)c2ccccc2)c1=O)C(=O)O [Compound 37, (2S)-5-carbamimidamido-2-[({1-[2-(diphenylamino)-2-oxoethyl]-2-oxo-1,2-dihydropyridin-3-yl}carbonyl)amino]pentanoic acid•TFA] | 6.30 to 7.30 |
| N=C(N)NCCC[C@H](NC(=O)c1cccn(Cc2cccc(F)c2)c1=O)C(=O)O [Compound 39, (2S)-5-carbamimidamido-2-({[1-(3-fluorobenzyl)-2-oxo-1,2-dihydropyridin-3-yl]carbonyl}amino)pentanoic acid•TFA] | > 7.30 |

More lines, now with the values ahead:

| pIC50 | Structure (SMILES) |
| --- | --- |
| 6.30 to 7.30 | CC(C)c1ccc(-c2ccccc2Cn2cccc(C(=O)N[C@@H](CCCNC(=N)N)C(=O)O)c2=O)cc1 [Compound 30, (2S)-5-carbamimidamido-2-[({1-[(4′-isopropylbiphenyl-2-yl)methyl]-2-oxo-1,2-dihydropyridin-3-yl}carbonyl)amino]pentanoic acid•TFA] |
| 4.70 to 6.30 | N=C(N)NCCC[C@H](NC(=O)c1cccn(-c2ccccc2)c1=O)C(=O)O [Compound 33, (2S)-5-carbamimidamido-2-{[(2-oxo-1-phenyl-1,2-dihydropyridin-3-yl)carbonyl]amino}pentanoic acid•TFA] |
| 6.30 to 7.30 | Cc1ccc(C(=O)N[C@@H](CCCNC(=N)N)C(=O)O)c(=O)n1Cc1ccccc1 [Compound 35, (2S)-2-{[(1-benzyl-6-methyl-2-oxo-1,2-dihydropyridin-3-yl)carbonyl]amino}-5-carbamimidamidopentanoic acid•TFA] |
| > 7.30 | N=C(N)NCCC[C@H](NC(=O)c1cccn(Cc2cccc(Cl)c2)c1=O)C(=O)O [Compound 38, (2S)-5-carbamimidamido-2-({[1-(3-chlorobenzyl)-2-oxo-1,2-dihydropyridin-3-yl]carbonyl}amino)pentanoic acid•TFA] |

Same assay, conditions: 0.1 nM [125I]-C3a, 3 hours at room temperature; Table 2

| Structure (SMILES) | pIC50 |
| --- | --- |
| Cc1ccccc1C(c1ccccc1C)n1cccc(C(=O)N[C@@H](CCCNC(=N)N)C(=O)O)c1=O [Compound 42, (2S)-2-[({1-[bis(2-methylphenyl)methyl]-2-oxo-1,2-dihydropyridin-3-yl}carbonyl)amino]-5-carbamimidamidopentanoic acid•TFA] | > 7.30 |
| N=C(N)NCCC[C@H](NC(=O)c1cccn(C(c2cccc(F)c2)c2cccc(F)c2)c1=O)C(=O)O [Compound 45, (2S)-2-[({1-[bis(3-fluorophenyl)methyl]-2-oxo-1,2-dihydropyridin-3-yl}carbonyl)amino]-5-carbamimidamidopentanoic acid•TFA] | > 7.30 |
| Cc1cc(C)cc(C(c2cc(C)cc(C)c2)n2cccc(C(=O)N[C@@H](CCCNC(=N)N)C(=O)O)c2=O)c1 [Compound 47, (2S)-2-[({1-[bis(3,5-dimethylphenyl)methyl]-2-oxo-1,2-dihydropyridin-3-yl}carbonyl)amino]-5-carbamimidamidopentanoic acid•TFA] | > 7.30 |
| N=C(N)NCCC[C@H](NC(=O)c1cccn(C(c2cccc(C(F)(F)F)c2)c2cccc(C(F)(F)F)c2)c1=O)C(=O)O [Compound 48, (2S)-2-{[(1-{bis[3-(trifluoromethyl)phenyl]methyl}-2-oxo-1,2-dihydropyridin-3-yl)carbonyl]amino}-5-carbamimidamidopentanoic acid•TFA] | > 7.30 |

Second part, the compound after the results:

| pIC50 | Structure (SMILES) |
| --- | --- |
| > 7.30 | N=C(N)NCCC[C@H](NC(=O)c1cccn(C(c2ccccc2)c2ccccc2)c1=O)C(=O)O [Compound 40, (2S)-5-carbamimidamido-2-({[1-(diphenylmethyl)-2-oxo-1,2-dihydropyridin-3-yl]carbonyl}amino)pentanoic acid•TFA] |
| > 7.30 | N=C(N)NCCC[C@@H](NC(=O)c1cccn(C(c2ccccc2)c2ccccc2)c1=O)C(=O)O [Compound 41, (2R)-5-carbamimidamido-2-({[1-(diphenylmethyl)-2-oxo-1,2-dihydropyridin-3-yl]carbonyl}amino)pentanoic acid•TFA] |
| > 7.30 | Cc1cccc(C(c2cccc(C)c2)n2cccc(C(=O)N[C@@H](CCCNC(=N)N)C(=O)O)c2=O)c1 [Compound 43, (2S)-2-[({1-[bis(3-methylphenyl)methyl]-2-oxo-1,2-dihydropyridin-3-yl}carbonyl)amino]-5-carbamimidamidopentanoic acid] |
| > 7.30 | N=C(N)NCCC[C@H](NC(=O)c1cccn(C(c2ccc(F)cc2)c2ccc(F)cc2)c1=O)C(=O)O [Compound 44, (2S)-2-[({1-[bis(4-fluorophenyl)methyl]-2-oxo-1,2-dihydropyridin-3-yl}carbonyl)amino]-5-carbamimidamidopentanoic acid•TFA] |
| > 7.30 | N=C(N)NCCC[C@H](NC(=O)c1cccn(C(c2ccccc2F)c2ccccc2F)c1=O)C(=O)O [Compound 46, (2S)-2-[({1-[bis(2-fluorophenyl)methyl]-2-oxo-1,2-dihydropyridin-3-yl}carbonyl)amino]-5-carbamimidamidopentanoic acid•TFA] |
| 6.30 to 7.30 | N=C(N)NCCC[C@H](NC(=O)c1cccn(C(c2ccc(C(F)(F)F)cc2)c2ccc(C(F)(F)F)cc2)c1=O)C(=O)O [Compound 49, (2S)-2-{[(1-{bis[4-(trifluoromethyl)phenyl]methyl}-2-oxo-1,2-dihydropyridin-3-yl)carbonyl]amino}-5-carbamimidamidopentanoic acid•TFA] |
| > 7.30 | CC(c1ccccc1)n1cccc(C(=O)N[C@@H](CCCNC(=N)N)C(=O)O)c1=O (stereo partly drawn) [Compound 50, (2S)-5-carbamimidamido-2-({[2-oxo-1-(1-phenylethyl)-1,2-dihydropyridin-3-yl]carbonyl}amino)pentanoic acid•TFA] |

Same assay, conditions: 0.1 nM [125I]-C3a, 3 hours at room temperature; Table 3

| pIC50 | Structure (SMILES) |
| --- | --- |
| 6.30 to 7.30 | N=C(N)NCCC[C@H](NC(=O)c1ccc(Cc2ccccc2)cc1)C(=O)O [Compound 51, (2S)-2-[(4-benzylbenzoyl)amino]-5-carbamimidamidopentanoic acid•TFA] |
| 6.30 to 7.30 | N=C(N)NCCC[C@H](NC(=O)c1cccc(Cc2ccccc2)c1)C(=O)O [Compound 52, (2S)-2-[(3-benzylbenzoyl)amino]-5-carbamimidamidopentanoic acid•TFA] |
| 6.30 to 7.30 | N=C(N)NCCC[C@H](NC(=O)c1ccn(Cc2ccccc2)c(=O)c1)C(=O)O [Compound 53, (2S)-2-{[(1-benzyl-2-oxo-1,2-dihydropyridin-4-yl)carbonyl]amino}-5-carbamimidamidopentanoic acid•TFA] |
| 6.30 to 7.30 | N=C(N)NCCC[C@H](NC(=O)c1ccc(=O)n(Cc2ccccc2)c1)C(=O)O [Compound 54, (2S)-2-{[(1-benzyl-6-oxo-1,6-dihydropyridin-3-yl)carbonyl]amino}-5-carbamimidamidopentanoic acid•TFA] |
| 6.30 to 7.30 | N=C(N)NCCC[C@H](NC(=O)c1cccc(=O)n1Cc1ccccc1)C(=O)O [Compound 55, (2S)-2-{[(1-benzyl-6-oxo-1,6-dihydropyridin-2-yl)carbonyl]amino}-5-carbamimidamidopentanoic acid•TFA] |
